Experimental findings from patent US11963960B2 (Flash Therapeutics, LLC, priority 2020, dated 2024) are described below.

The structures appear in SMILES notation. pIC50: −log10 of the molar value.

For this test, the target named is N-terminally GST-tagged HCK (75-526) (Homo sapiens (Human), UniProt P08631). Description: HCK Kinase Assay (ProFluor Src-Family Kinase Assay). The test is classed as biochemical. To be noted: HCK inhibitory activity, 50 μM ATP; read-out: HCK Activity. The essentials:
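ProFluor Src-family format: after the kinase reaction, protease solution was added for 60 min at room temperature (22-25° C), then stabilizer.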

Sequence of N-terminally GST-tagged HCK (75-526) (P08631 75-526): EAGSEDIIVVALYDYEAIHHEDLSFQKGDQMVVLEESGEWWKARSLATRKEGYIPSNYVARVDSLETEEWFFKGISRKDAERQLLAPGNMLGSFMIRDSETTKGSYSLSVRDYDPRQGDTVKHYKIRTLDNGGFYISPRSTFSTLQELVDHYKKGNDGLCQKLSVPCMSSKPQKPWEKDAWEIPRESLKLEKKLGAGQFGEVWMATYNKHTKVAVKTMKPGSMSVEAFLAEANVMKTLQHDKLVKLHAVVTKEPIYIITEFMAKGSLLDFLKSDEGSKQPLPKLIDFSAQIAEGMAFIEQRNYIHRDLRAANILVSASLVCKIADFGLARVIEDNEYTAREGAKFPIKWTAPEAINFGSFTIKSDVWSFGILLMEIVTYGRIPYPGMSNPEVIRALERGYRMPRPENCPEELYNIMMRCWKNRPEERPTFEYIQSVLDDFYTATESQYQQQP

With `Nc1ncnc2c1c(-c1ccc(Oc3ccccc3)cc1)cn2C1CCC2(CC1)NC(=O)N(c1ccncc1)C2=O` (stereo not drawn) [Example 93, 8-(4-Amino-5-(4-phenoxyphenyl)-7H-pyrrolo[2,3-d]pyrimidin-7-yl)-3-(pyridin-4-yl)-1,3-diazaspiro [4.5] decane-2,4-dione], the pIC50 was 6.60 to 7.30.

For `NC(=O)C=C1CCC(n2cc(-c3ccc(Oc4ccccc4)cc3)c3c(N)ncnc32)CC1` (stereo not drawn) [Example 94, 2-(4-(4-Amino-5-(4-phenoxyphenyl)-7H-pyrrolo[2,3-d]pyrimidin-7-yl)cyclohexylidene)acetamide], the pIC50 is > 7.30.

Consider `COC(=O)CC1(N)CCC(n2cc(-c3ccc(Oc4ccccc4)cc3)c3c(N)ncnc32)CC1` (stereo not drawn) [Example 95, Methyl 2-(1-amino-4-(4-amino-5-(4-phenoxyphenyl)-7H-pyrrolo[2,3-d]pyrimidin-7-yl)cyclohexyl) acetate], for which the pIC50 was 5.00 to 6.60.

In the case of `NC(=O)CC1(N)CCC(n2cc(-c3ccc(Oc4ccccc4)cc3)c3c(N)ncnc32)CC1` (stereo not drawn) [Example 96, 2-(1-Amino-4-(4-amino-5-(4-phenoxyphenyl)-7H-pyrrolo[2,3-d]pyrimidin-7-yl)cyclohexyl)acetamide], the pIC50 is > 7.30.

On to `CNC(=O)C=C1CCC(n2cc(-c3ccc(Oc4ccccc4)cc3)c3c(N)ncnc32)CC1` (stereo not drawn) [Example 97, 2-(4-(4-amino-5-(4-phenoxyphenyl)-7H-pyrrolo[2,3-d]pyrimidin-7-yl)cyclohexylidene)-N-methylacetamide], for which the pIC50 was > 7.30.

As for `CNC(=O)CC1(NC)CCC(n2cc(-c3ccc(Oc4ccccc4)cc3)c3c(N)ncnc32)CC1` (stereo not drawn) [Example 98, 2-(4-(4-amino-5-(4-phenoxyphenyl)-7H-pyrrolo[2,3-d]pyrimidin-7-yl)-1-(methylamino)cyclohexyl)-N-methylacetamide], the pIC50 was > 7.30.

As for `CCOC(=O)C1CC12CCC(n1cc(-c3ccc(Oc4ccccc4)cc3)c3c(N)ncnc31)CC2` (stereo not drawn) [Example 99, Ethyl 6-(4-amino-5-(4-phenoxyphenyl)-7H-pyrrolo[2,3-d]pyrimidin-7-yl)spiro[2.5]octane-1-carboxylate], the pIC50 was > 7.30.

`CN1CCN(CC2(O)CCC(n3cc(-c4ccc(Oc5ccccc5)cc4)c4c(N)ncnc43)CC2)CC1` (stereo not drawn) [Example 100, 4-(4-Amino-5-(4-phenoxyphenyl)-7H-pyrrolo[2,3-d]pyrimidin-7-yl)-1-((4-methylpiperazin-1-yl)methyl)cyclohexanol]: the pIC50 is 6.60 to 7.30.

Consider `Nc1ncnc2c1c(-c1ccc(Oc3ccccc3)cc1)cn2C1CCC(O)(Cn2ccnc2)CC1` (stereo not drawn) [Example 101, 1-((1H-Imidazol-1-yl)methyl)-4-(4-amino-5-(4-phenoxyphenyl)-7H-pyrrolo[2,3-d]pyrimidin-7-yl)cyclohexanol], for which the pIC50 is 6.60 to 7.30.

As for `Nc1ncnc2c1c(-c1ccc(Oc3ccccc3)cc1)cn2C1CCC(O)(Cn2cnnn2)CC1` (stereo not drawn) [Example 102, 1-((1H-Tetrazol-1-yl)methyl)-4-(4-amino-5-(4-phenoxyphenyl)-7H-pyrrolo[2,3-d]pyrimidin-7-yl)cyclohexanol], the pIC50 is > 7.30.

As for `CN1CCN([C@H]2CC[C@H](n3cc(-c4ccc(Oc5ccccc5)cc4F)c4c(N)ncnc43)CC2)CC1` [Example 105, 5-(2-fluoro-4-phenoxyphenyl)-7-((trans)-4-(4-methylpiperazin-1-yl)cyclohexyl)-7H-pyrrolo[2,3-d]pyrimidin-4-amine], the pIC50 was > 7.30.

As to `CN1CCN([C@H]2CC[C@H](n3cc(-c4ccc(Oc5ccccc5)cc4Cl)c4c(N)ncnc43)CC2)CC1` [Example 106, 5-(2-chloro-4-phenoxyphenyl)-7-((trans)-4-(4-methylpiperazin-1-yl)cyclohexyl)-7H-pyrrolo[2,3-d]pyrimidin-4-amine], the pIC50 was > 7.30.

In the case of `CN1CCN([C@H]2CC[C@H](n3nc(-c4c(F)cc(Oc5ccccc5)cc4F)c4c(N)ncnc43)CC2)CC1` [Example 107, 3-(2,6-difluoro-4-phenoxyphenyl)-1-((trans)-4-(4-methylpiperazin-1-yl)cyclohexyl)-1H-pyrazolo[3,4-d]pyrimidin-4-amine], the pIC50 was > 7.30.

On to `CN1CCN([C@H]2CC[C@H](n3cc(-c4ccc(Oc5ccccc5F)cc4)c4c(N)ncnc43)CC2)CC1` [Example 108, 5-(4-(2-fluorophenoxy)phenyl)-7-((trans)-4-(4-methylpiperazin-1-yl)cyclohexyl)-7H-pyrrolo[2,3-d]pyrimidin-4-amine], for which the pIC50 was > 7.30.

With `CN1CCN([C@H]2CC[C@H](n3cc(-c4ccc(Oc5c(F)cccc5F)cc4)c4c(N)ncnc43)CC2)CC1` [Example 109, 5-(4-(2,6-difluorophenoxy)phenyl)-7-((trans)-4-(4-methylpiperazin-1-yl)cyclohexyl)-7H-pyrrolo[2,3-d]pyrimidin-4-amine], the pIC50 was > 7.30.

Turning to `COc1cc(-c2nn([C@H]3CC[C@H](N4CCN(C)CC4)CC3)c3ncnc(N)c23)ccc1Oc1ccccc1` [Example 110], the pIC50 is > 7.30.

As to `Cc1ccc(Oc2ccc(-c3cn([C@H]4CC[C@H](N5CCN(C)CC5)CC4)c4ncnc(N)c34)cc2)cc1` [Example 111, 7-((trans)-4-(4-methylpiperazin-1-yl)cyclohexyl)-5-(4-(p-tolyloxy)phenyl)-7H-pyrrolo[2,3-d]pyrimidin-4-amine], the pIC50 is 6.60 to 7.30.

In the case of `CN1CCN([C@H]2CC[C@H](n3cc(-c4ccc(Oc5ccccc5C#N)cc4)c4c(N)ncnc43)CC2)CC1` [Example 112, 2-(4-(4-amino-7-((trans)-4-(4-methylpiperazin-1-yl)cyclohexyl)-7H-pyrrolo[2,3-d]pyrimidin-5-yl)phenoxy)benzonitrile], the pIC50 is > 7.30.

For `CN1CCN([C@H]2CC[C@H](n3cc(-c4ccc(C(=O)c5ccccc5)cc4)c4c(N)ncnc43)CC2)CC1` [Example 113, (4-(4-amino-7-((trans)-4-(4-methylpiperazin-1-yl)cyclohexyl)-7H-pyrrolo[2,3-d]pyrimidin-5-yl)phenyl)(phenyl)methanone], the pIC50 is > 7.30.

`CN1CCN([C@H]2CC[C@H](n3cc(-c4ccc(C(O)c5ccccc5)cc4)c4c(N)ncnc43)CC2)CC1` (stereo partly drawn) [Example 114, (4-(4-amino-7-((trans)-4-(4-methylpiperazin-1-yl)cyclohexyl)-7H-pyrrolo[2,3-d]pyrimidin-5-yl)phenyl)(phenyl)methanol]: the pIC50 is > 7.30.

Take `CN1CCN([C@H]2CC[C@H](n3cc(-c4ccc(Cc5ccccc5)cc4)c4c(N)ncnc43)CC2)CC1` [Example 115, 5-(4-benzylphenyl)-7-((trans)-4-(4-methylpiperazin-1-yl)cyclohexyl)-7H-pyrrolo[2,3-d]pyrimidin-4-amine]: the pIC50 is > 7.30.

In the case of `CN1CCN([C@H]2CC[C@H](n3cc(-c4ccc(Oc5cccnn5)cc4)c4c(N)ncnc43)CC2)CC1` [Example 116, 7-((trans)-4-(4-methylpiperazin-1-yl)cyclohexyl)-5-(4-(pyridazin-3-yloxy)phenyl)-7H-pyrrolo[2,3-d]pyrimidin-4-amine], the pIC50 was > 7.30.

As to `CCc1cc(NC(=O)Nc2ccc(-c3cn([C@H]4CC[C@H](N5CCN(C)CC5)CC4)c4ncnc(N)c34)cc2)no1` [Example 117, 1-(4-(4-amino-7-((trans)-4-(4-methylpiperazin-1-yl)cyclohexyl)-7H-pyrrolo[2,3-d]pyrimidin-5-yl)phenyl)-3-(5-ethylisoxazol-3-yl)urea], the pIC50 is 6.60 to 7.30.

`CCc1cc(NC(=O)Nc2ccc(-c3cn([C@H]4CC[C@H](N5CCN(C)CC5)CC4)c4ncnc(N)c34)cc2)on1` [Example 118, 1-(4-(4-amino-7-((trans)-4-(4-methylpiperazin-1-yl)cyclohexyl)-7H-pyrrolo[2,3-d]pyrimidin-5-yl)phenyl)-3-(3-ethylisoxazol-5-yl)urea]: the pIC50 is 6.60 to 7.30.

For `CC(C)c1cc(NC(=O)Nc2ccc(-c3cn([C@H]4CC[C@H](N5CCN(C)CC5)CC4)c4ncnc(N)c34)cc2)no1` [Example 119, 1-(4-(4-amino-7-((trans)-4-(4-methylpiperazin-1-yl)cyclohexyl)-7H-pyrrolo[2,3-d]pyrimidin-5-yl)phenyl)-3-(5-isopropylisoxazol-3-yl)urea], the pIC50 is > 7.30.

Consider `CN1CCN([C@H]2CC[C@H](n3cc(-c4ccc(NC(=O)Nc5cc(C(C)(C)C)on5)cc4)c4c(N)ncnc43)CC2)CC1` [Example 120, 1-(4-(4-amino-7-((trans)-4-(4-methylpiperazin-1-yl)cyclohexyl)-7H-pyrrolo[2,3-d]pyrimidin-5-yl)phenyl)-3-(5-(tert-butyl)isoxazol-3-yl)urea], for which the pIC50 is > 7.30.

As to `COc1cc(-c2nn([C@H]3CC[C@H](N4CCN(C)CC4)CC3)c3ncnc(N)c23)ccc1NC(=O)Nc1cc(C(C)(C)C)on1` [Example 123, 1-(4-(4-amino-1-((trans)-4-(4-methylpiperazin-1-yl)cyclohexyl)-1H-pyrazolo[3,4-d]pyrimidin-3-yl)-2-methoxyphenyl)-3-(5-(tert-butyl)isoxazol-3-yl)urea], the pIC50 was > 7.30.

For the compound `CN1CCN([C@H]2CC[C@H](n3cc(-c4ccc(CC(=O)Nc5cc(C(C)(C)C)on5)cc4)c4c(N)ncnc43)CC2)CC1` [Example 124, 2-(4-(4-amino-7-((trans)-4-(4-methylpiperazin-1-yl)cyclohexyl)-7H-pyrrolo[2,3-d]pyrimidin-5-yl)phenyl)-N-(5-(tert-butyl)isoxazol-3-yl)acetamide], the pIC50 is 6.60 to 7.30.

On to `[2H]c1c([2H])c([2H])c(Oc2ccc(-c3cn([C@H]4CC[C@H](N5CCN[C@@H](C)C5)CC4)c4ncnc(N)c34)cc2)c([2H])c1[2H]` [Example 125, 7-((trans)-4-((S)-3-methylpiperazin-1-yl)cyclohexyl)-5-(4-pentadeuteriophenoxyphenyl)-7H-pyrrolo[2,3-d]pyrimidin-4-amine], for which the pIC50 was > 7.30.

On to `C[C@H]1CN([C@H]2CC[C@H](n3cc(-c4ccc(Oc5ccccc5)cc4F)c4c(N)ncnc43)CC2)CCN1` [Example 126, 5-(2-fluoro-4-phenoxyphenyl)-7-((trans)-4-((S)-3-methylpiperazin-1-yl)cyclohexyl)-7H-pyrrolo[2,3-d]pyrimidin-4-amine], for which the pIC50 was > 7.30.
